Source: patent publication US8636979B2, “TLR 4 and 9 receptors agonists for preventing septic complications of post-traumatic immunodepression in patients hospitalized for severe traumatic injuries” (Chu Nantes, priority 2009, dated 2014)

Tested on: methicillin-sensitive Staphyloccocus aureus (MSSA) pneumonia after haemorrhagic shock
Assay: Mortality from MSSA pneumonia after haemorrhagic shock (post-haemorrhagic SI model)
Assay type: in vivo
Conditions: Balb/cJ mice; i.v. injection immediately after resuscitation from haemorrhagic shock; 7×10^6 CFU MSSA 24 h later; survival followed 7 days
Method: An intra-venous injection of CpG-ODN 1668 (100 μl to […]) (HP-CpG group) or the same volume of isotonic saline solution (HP group) was given immediately after resuscitation from haemorrhagic shock. Twenty-four hours later the mice were inoculated with 7×10^6 CFU of MSSA. The survival rate of each group was measured twice a day for 7 days (168 hours). Each group comprised 8 animals. Data are given as a percentage and are representative of three independent experiments each having the same statistical significance (*p≦0.05). HP Group (black diamonds), HP-CpG group (blank squares).
Male Balb/cJ mice (20-24 grams) were obtained from the Janvier breeding company (Laval, France). Mice were kept on a day/night cycle of 12 hours with free access to food and drink. […]
A strain of methicillin-sensitive Staphyloccocus aureus or <<MSSA>> (ATCC strain 29213) was cultured 16 hours at 37° C. in a tryptic soy medium (Grosseron, Saint Herblain, France). […] The bacterial concentration was systematically controlled by quantitative culture. […]
Mortality was assessed twice a day for 7 days. […] Capillary glycaemia was measured using a haemaglucotest (Boehringer Ingelheim France), Venous blood gasometry, reflecting shock intensity and quality of resuscitation, was measured on central venous blood taken from the right atrium.

monophosphoryl lipid A [MPLA]
mortality in post-haemorrhagic SI model with MSSA pneumonia: significantly lowered mortality
